Data taken from paper PMC7996328, “Design, Synthesis, and Biological Evaluation of a Series of 5- and 7-Hydroxycoumarin Derivatives as 5-HT1A Serotonin Receptor Antagonists” (Pharmaceuticals, 2021).
“Also recorded” adds a separate entry of the source. Where two headings read alike, the source gives them in different places.

Legend:
5-HT1A receptor = molecular target: T1, 5-HT1A receptor (Rattus norvegicus, UniProt P19327); experiment: Antagonist activity for the 5-HT1A receptor, [35S]GTPγS assay in hippocampal homogenates; assay type: biochemical; settings: 8-OH-DPAT 1.4 × 10^−7 M, mean ± SEM
T1 construct: Hippocampal homogenates (15 μg/mL) were added to each tube as the 5-HT1A receptor source; from tissue; host or cells: rat hippocampus (male Sprague-Dawley), membrane homogenate
T1 sequence (P19327 1-422): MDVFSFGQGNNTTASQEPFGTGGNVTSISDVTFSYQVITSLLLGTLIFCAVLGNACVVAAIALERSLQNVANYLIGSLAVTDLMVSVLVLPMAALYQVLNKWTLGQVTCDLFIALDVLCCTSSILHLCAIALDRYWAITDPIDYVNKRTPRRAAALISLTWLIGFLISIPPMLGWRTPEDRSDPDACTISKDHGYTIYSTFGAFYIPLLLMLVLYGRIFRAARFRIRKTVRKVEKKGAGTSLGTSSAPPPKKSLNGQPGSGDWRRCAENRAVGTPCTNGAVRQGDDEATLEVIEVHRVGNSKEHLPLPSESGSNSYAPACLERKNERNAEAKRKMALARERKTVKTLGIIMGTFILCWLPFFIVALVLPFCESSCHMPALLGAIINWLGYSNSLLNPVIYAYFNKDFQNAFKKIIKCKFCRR
Method: Male Sprague–Dawley rats were decapitated, their brains removed, and placed on ice. Hippocampi were dissected and homogenized with a glass homogenizer in 30 vol. ice-cold TED buffer (50 mM Tris-HCl, 1 mM EDTA, 1mM dithiotheritol, pH 7.4). Next, the homogenate was centrifuged at 21,000× g for 30 min at 4 °C. […] The suspension was centrifuged again at 21,000× g for 30 min at 4 °C. The pellet was resuspended in 30 vol. TED buffer (pH 7.4) and the centrifugation step was repeated. The final pellet was suspended in 10 vol 50 mM Tris-HCl (pH 7.4) and stored at −80 °C until use.
Serial dilutions of the compounds tested (10^−10–10^−5 M) were incubated in triplicate with 0.8 nM [^35S]GTPγS in assay buffer (50 mM Tris-HCl, pH = 7.4, 1 mM EGTA, 3 mM MgCl2, 100 mM NaCl, 30 µM GDP) and 8-OH-DPAT (final concentration 1.4 × 10^−7 M) in the final assay volume of 250 µL. Hippocampal homogenates (15 μg/mL) were added to each tube as the 5-HT1A receptor source. […] Non-specific binding was determined with 10 µM of unlabeled GTPγS. […] Next, 96-well Unifilter® Plates (Perkin Elmer, Waltham, MA, USA) were presoaked for 1 h with 50 mM Tris-HCl (pH = 7.4) before harvesting. The reaction was terminated by vacuum filtration onto filter plates with the FilterMate Harvester® (Perkin Elmer, Waltham, MA, USA). The samples were then rapidly washed with 2 mL of 50 mM Tris-HCl (pH = 7.4) buffer. Filter plates were dried for 2 h at 50 °C. After drying, 45 µL of EcoScint-20 scintillant (Perkin Elmer) was added to every well. Radioactivity was counted in a Trilux MicroBeta^2 counter (Perkin Elmer). Data were analyzed with GraphPad Prism 5.0 software (GraphPad Software, San Diego, CA, USA, www.graphpad.com). Curves were fitted with a one-site non-linear regression model. Efficacy (Emax) and half maximal inhibitory concentration (IC50) were calculated from the Cheng–Prusoff equation and expressed as means ± SEM.

5-HT2A receptor = molecular target: T2, 5-HT2A receptor (Rattus norvegicus, UniProt P14842); experiment: 5-HT2A competition binding assay, [3H]ketanserin, frontal cortex homogenates; settings: [3H]ketanserin 1 nM
T2 construct: from tissue; host or cells: rat frontal cortex (male SD), membrane homogenate
Method: Male SD rats were decapitated and their brains removed and placed on ice. Frontal cortices were homogenized with a glass homogenizer in 30 vol ice-cold homogenization buffer (50 mM Tris-HCl. 1 mM EDTA. 5 mM MgCl2. pH 7.4). Next, the homogenate was centrifuged at 20,000× g for 15 min at 4 °C. […] The suspension was again centrifuged at 20,000× g for 15 min at 4 °C. The pellet was resuspended in 10 vol. 50 mM Tris-HCl (pH 7.4) and the centrifugation step was repeated. The final pellet was suspended in 10 vol 50 mM Tris-HCl (pH 7.4) and stored at −80 °C.
Non-specific binding was determined in the presence of 10 μM mianserin. After incubation, the reaction mixture was deposited onto UniFilter-96 GF/B plates with the aid of a FilterMate-96 Harvester. Filter plates were presoaked beforehand with 0.4% PEI for 1 h. Next, each filter well was washed with 1.75 mL of 50 mM Tris-HCl (pH 7.4) and left to dry on a heating block set to 50 °C for 2 h. Then 45 µL of Microscint-20 scintillation fluid was added to each filter well and left to equilibrate overnight. Filter-bound radioactivity was counted in a MicroBeta^2 Microplate Counter. Binding curves were fitted with one site non-linear regression. Affinity was presented as the inhibitory constant (pKi ± SEM and Ki ± SEM) from two or three separate experiments.

[1] = read-out: Ki (nM ± SEM) (converted)
[2] = read-out: pKi (M ± SEM) (converted)

T2 sequence (P14842 whole entry): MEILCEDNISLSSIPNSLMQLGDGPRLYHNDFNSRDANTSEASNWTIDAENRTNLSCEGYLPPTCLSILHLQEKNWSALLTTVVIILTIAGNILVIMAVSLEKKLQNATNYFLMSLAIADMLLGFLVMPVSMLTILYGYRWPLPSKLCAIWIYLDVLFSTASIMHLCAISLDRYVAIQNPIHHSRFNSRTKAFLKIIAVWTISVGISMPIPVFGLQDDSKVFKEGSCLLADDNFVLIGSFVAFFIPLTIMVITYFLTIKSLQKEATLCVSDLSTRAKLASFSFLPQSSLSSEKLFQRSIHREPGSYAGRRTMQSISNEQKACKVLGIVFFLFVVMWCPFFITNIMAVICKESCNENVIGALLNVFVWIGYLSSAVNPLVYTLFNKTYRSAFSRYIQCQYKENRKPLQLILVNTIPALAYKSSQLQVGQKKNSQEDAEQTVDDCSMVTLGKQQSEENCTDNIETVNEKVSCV

Cc1cc(OCCCCCN2CCN(c3ccccc3F)CC2)c2c(C)cc(=O)oc2c1 [Compound 1b, 5-(5-(4-(2-fluorophenyl)piperazin-1-yl)pentyloxy)-4,7-dimethyl-2H-chromen-2-one]
melting point: 106 to 108 °C
IC50 (5-HT1A receptor): 1 µM
EC50 (5-HT1A receptor; antagonistic activity): 980 ± 207 nM
Ki (5-HT2A receptor; [1]): 1260 ± 479 nM

COc1ccccc1N1CCN(CCOc2ccc3c(C)cc(=O)oc3c2C(C)=O)CC1 [Compound 6a, 8-acetyl-7-(2-[4-(2-methoxyphenyl)piperazin-1-yl]ethoxy)-4-methylchromen-2-one]
melting point: 157 to 159 °C
IC50 (5-HT1A receptor): 3.16 µM
EC50 (5-HT1A receptor; antagonistic activity): 2740 ± 626 nM
Ki (5-HT2A receptor; [1]): 752 ± 171 nM

CC(=O)c1c(OCCCCCN2CCN(c3cc(C)cc(C)c3)CC2)ccc2c(C)cc(=O)oc12 [Compound 5h, 8-acetyl-7-(5-[4-(3,5-dimethylphenyl)piperazin-1-yl]penthoxy)-4-methylchromen-2-one]
melting point: 113 to 115 °C
IC50 (5-HT1A receptor): 31.6 µM
EC50 (5-HT1A receptor; antagonistic activity): 32900 nM
Ki (5-HT2A receptor; [1]): 291 ± 57 nM

Cc1ccc(C)c(N2CCN(CCOc3cc(C)cc4oc(=O)cc(C)c34)CC2)c1 [Compound 2d, 5-(2-(4-(2,5-dimethylphenyl)piperazin-1-yl)ethoxy)-4,7-dimethyl-2H-chromen-2-one]
melting point: 119 to 120 °C
pIC50 ± SEM (5-HT1A receptor): no activity
EC50 (nM ± SEM) (5-HT1A receptor; antagonistic activity): did not show any activity; also recorded: no activity
Ki (5-HT2A receptor; [1]): 7320 ± 2080 nM
Ki (5-HT2A receptor; [2]): 7410 nM

CC(=O)c1c(C)cc2oc(=O)cc(C)c2c1OCCN1CCN(c2ccccc2C#N)CC1 [Compound 4j, 6-acetyl-5-(2-(4-(2-cyanophenyl)piperazin-1-yl)ethoxy)-4,7-dimethyl-2H-chromen-2-one]
melting point: 153 to 155 °C
IC50 (5-HT1A receptor): 0.501 µM
EC50 (5-HT1A receptor; antagonistic activity): 538 ± 105 nM
Ki (5-HT2A receptor; [1]): 2430 ± 374 nM

CC(=O)c1c(C)cc2oc(=O)cc(C)c2c1OCCN1CCN(c2ccccc2Br)CC1 [Compound 4f, 6-acetyl-5-(2-(4-(2-bromophenyl)piperazin-1-yl)ethoxy)-4,7-dimethyl-2H-chromen-2-one]
melting point: 83 to 85 °C
IC50 (5-HT1A receptor): 8.32 µM
EC50 (5-HT1A receptor; antagonistic activity): 8320 ± 1500 nM
Ki (5-HT2A receptor; [1]): 10600 nM

COc1ccccc1N1CCN(CCCCCOc2ccc3c(C)cc(=O)oc3c2C(C)=O)CC1 [Compound 5a, 8-acetyl-7-(5-[4-(2-methoxyphenyl)piperazin-1-yl]penthoxy)-4-methylchromen-2-one]
melting point: 126 to 128 °C
IC50 (5-HT1A receptor): 0.0316 µM
EC50 (5-HT1A receptor; antagonistic activity): 30.5 ± 2.56 nM
Ki (5-HT2A receptor; [1]): 343 ± 86 nM

Cc1cc(OCCN2CCN(c3cccc(Cl)c3Cl)CC2)c2c(C)cc(=O)oc2c1 [Compound 2i, 5-(2-(4-(2,3-dichlorophenyl)piperazin-1-yl)ethoxy)-4,7-dimethyl-2H-chromen-2-one]
melting point: 142 to 145 °C
IC50 (5-HT1A receptor): 398 µM
EC50 (5-HT1A receptor; antagonistic activity): 366000 nM
Ki (5-HT2A receptor; [1]): 4310 ± 1550 nM

CC(=O)c1c(C)cc2oc(=O)cc(C)c2c1OCCCCCN1CCN(c2cccc(F)c2)CC1 [Compound 3e, 6-acetyl-5-(5-(4-(3-fluorophenyl)piperazin-1-yl)pentyloxy)-4,7-dimethyl-2H-chromen-2-one]
melting point: 150 to 152 °C
IC50 (5-HT1A receptor): 0.708 µM
EC50 (5-HT1A receptor; antagonistic activity): 702 ± 112 nM
Ki (5-HT2A receptor; [1]): 1420 ± 426 nM

CC(=O)c1c(C)cc2oc(=O)cc(C)c2c1OCCN1CCN(c2cccc(Br)c2)CC1 [Compound 4g]
melting point: 127 to 128 °C
IC50 (5-HT1A receptor): 12.6 µM
EC50 (5-HT1A receptor; antagonistic activity): 11100 nM
Ki (5-HT2A receptor; [1]): 3990 ± 745 nM

CC(=O)c1c(OCCCCCN2CCN(c3ccccc3Br)CC2)ccc2c(C)cc(=O)oc12 [Compound 5f, 8-acetyl-7-(5-[4-(2-bromophenyl)piperazin-1-yl]penthoxy)-4-methylchromen-2-one]
melting point: 102 to 103 °C
IC50 (5-HT1A receptor): 31.6 µM
EC50 (5-HT1A receptor; antagonistic activity): 27400 nM
Ki (5-HT2A receptor; [1]): 108 ± 24 nM
Ki (5-HT2A receptor; [2]): 110 nM

CC(=O)c1c(C)cc2oc(=O)cc(C)c2c1OCCN1CCN(c2ccccc2F)CC1 [Compound 4b, 6-acetyl-5-(2-(4-(2-fluorophenyl)piperazin-1-yl)ethoxy)-4,7-dimethyl-2H-chromen-2-one]
melting point: 118 to 119 °C
IC50 (5-HT1A receptor): 5.01 µM
EC50 (5-HT1A receptor; antagonistic activity): 5000 ± 218 nM
Ki (5-HT2A receptor; [1]): 7050 ± 1650 nM
